According to publication PMC7051184, “C9orf72 arginine-rich dipeptide repeat proteins disrupt karyopherin-mediated nuclear import” (eLife, 2020):
Where a SMILES comes first, the peptide text is derived from it.

Assays:
[1] = molecular target: passive nuclear influx of 40 kD dextran; experiment: Passive import assay, 40 kD dextran, permeabilized HeLa; type: cell-based, human; details: preincubation 30–60 min, with energy and lysate; imaged 5 min
importin β = experiment: Biochemical pulldown (GFP-Trap) for DPR-induced Rango-importin β dissociation; type: binding, human; details: increasing concentrations of DPRs
Procedure: GFP-Trap magnetic beads (Chromotek, Planegg-Martinsried, Germany) were washed and resuspended in TTBS. At the end of incubation, 8 µl bead suspension was added to each sample and mixed by rotation for 15 min. The supernatant was removed and beads washed 3 times with TTBS before boiling in 20 µl SDS-PAGE sample buffer with 2% β-mercaptoethanol. Samples were separated by SDS-PAGE and anti-GFP western blot performed as detailed below to detect Rango. After detecting the ECL signal, membranes were stained with Coomassie Brilliant R250 to detect importin β. Background-subtracted signals were determined by Image Lab 6.01 (BioRad) and the Rango ECL signal normalized to the importin β signal within each lane.
Supernatant and pellet fractions (for all 5 DPRs, and control/buffer only) were prepared as in the nuclear transport assays, by adding 100 µM 10mers to 2.5 mg/ml HEK lysate in 100 µL TRB. Supernatants were boiled in Laemmli (BioRad) for 5 min. Pellets were boiled for 15 min followed by sonication in order to fully disperse aggregates for SDS-PAGE. Equal volumes of supernatant and pellet fractions were run on 4–12% Bolt Bis-Tris Plus gels (ThermoFisher), transferred to nitrocellulose membrane using an iBlot2 dry blotting system (ThermoFisher). Protein loading was analyzed by BLOT-Faststain (G-biosciences, St. Louis, MO), according to the manufacterers’ instructions. For immunodetection, membranes were blocked with 5% non-fat milk in TBST and probed by sequential incubation with the primary antibodies as detailed in the table below. Detection was by HRP-conjugated secondary antibodies/chemiluminescence using an ImageQuant LAS 4000 system (GE, Chicago, IL). To permit sequential probing of membranes without stripping, signals were quenched by incubation with prewarmed 30% H20_2 for 20 min ([Sennepin et al., 2009]). Band intensities were measured by ImageQuant software. For pellet vs. supernatant fractions, all were expressed as percent untreated control. For blots in Figure 1E, samples were run on 4–20% SDS PAGE minigels (ThermoFisher) and blotted to PVDF membranes (Immun-Blot PVDF, Bio-Rad) using the Bio-Rad TransBlot Turbo apparatus, and probed as above. The chemiluminescence signal was captured with a Bio-Rad ChemiDoc XRS+ digital imaging system.

[2] = tested on: passive nuclear influx of GFP; experiment: Passive import assay, GFP, permeabilized HeLa; type: cell-based, human; details: preincubation 30–60 min, with energy and lysate; imaged 5 min
[3] = molecular target: importin β-mediated nuclear import of Rango (Homo sapiens, UniProt Q14974); experiment: Permeabilized cell nuclear import assay, Rango, mouse primary cortical neurons; type: cell-based; details: for Effect on Rango import at steady state: 100 µM, fixed at 2 hr; for Effect on Rango import, time-lapse imaging: 30 min, up to 100 µM
importin β-mediated nuclear import of Rango, sequence (Q14974 whole entry): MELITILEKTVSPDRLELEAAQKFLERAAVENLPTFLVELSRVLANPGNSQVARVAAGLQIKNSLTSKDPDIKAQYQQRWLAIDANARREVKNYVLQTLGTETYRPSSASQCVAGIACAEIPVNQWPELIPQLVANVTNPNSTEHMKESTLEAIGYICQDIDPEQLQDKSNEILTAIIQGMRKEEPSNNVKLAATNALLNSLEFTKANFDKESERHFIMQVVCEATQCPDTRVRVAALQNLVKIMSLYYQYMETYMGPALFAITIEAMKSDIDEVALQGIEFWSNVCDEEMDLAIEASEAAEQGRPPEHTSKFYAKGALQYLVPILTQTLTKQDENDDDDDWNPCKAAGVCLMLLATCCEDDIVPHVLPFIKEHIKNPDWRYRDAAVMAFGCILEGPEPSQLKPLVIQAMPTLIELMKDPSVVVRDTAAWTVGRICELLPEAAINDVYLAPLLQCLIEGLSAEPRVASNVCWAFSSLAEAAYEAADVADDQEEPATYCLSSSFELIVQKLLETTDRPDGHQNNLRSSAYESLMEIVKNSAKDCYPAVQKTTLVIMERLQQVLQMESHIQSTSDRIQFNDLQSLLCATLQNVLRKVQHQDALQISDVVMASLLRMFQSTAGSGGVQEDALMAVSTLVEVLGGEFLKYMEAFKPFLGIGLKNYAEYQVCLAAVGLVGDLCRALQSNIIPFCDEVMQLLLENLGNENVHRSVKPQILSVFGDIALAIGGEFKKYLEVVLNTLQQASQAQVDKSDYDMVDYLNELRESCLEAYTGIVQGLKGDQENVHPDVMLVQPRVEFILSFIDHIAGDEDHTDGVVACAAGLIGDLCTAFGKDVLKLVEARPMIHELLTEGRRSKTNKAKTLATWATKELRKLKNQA
From the text: All animal procedures were approved by the Johns Hopkins Animal Care and Use Committee. Timed pregnant C57BL/6J females (Jackson Laboratory, Bar Harbor, ME) were sacrificed by cervical dislocation at E16, cortex dissociated, and cells plated at 50,000/well on poly-D-lysine/laminin-coated, optical glass-bottom 96-well plates. Growth medium consisted of Neurobasal supplemented with B27, Glutamax, and penicillin/streptomycin (Gibco/ThermoFisher). At 5–7 days in vitro, neurons were rinsed in prewarmed PBS and permeabilized for 4 min. at 37° in a hypotonic solution containing […] Tris-HCl pH 7.5 (to cause osmotic swelling) and 50–150 mg/ml BSA (for molecular crowding/mechanical support). Following permeabilization, cells were placed on ice and rinsed 2 × 5 min in transport buffer (TRB, 20 mM HEPES, 110 mM KOAc, 2 mM Mg(OAc)2, 5 mM NaOAc, 0.5 mM EGTA, 250 mM sucrose, pH 7.3, with protease inhibitor cocktail). All rinse and assay buffers were supplemented with 50 mg/mL BSA. The optimal hypotonic buffer and BSA concentration varied by batch, and was optimized prior to each set of assays for ability to permeabilize the majority of plasma membranes while maintaining nuclear exclusion of a 70 kD fluorescent dextran (ThermoFisher).
Concentrated whole cell lysates were prepared from HEK293T cells (ATCC, mycoplasma negative and validated by STR profiling), grown in 150 mm dishes and sonicated on ice in 1X TRB in the presence of protease inhibitor cocktail (Roche). The lysates were clarified (15 min, 14000 g, 4C), snap frozen in liquid nitrogen, and stored in single use aliquots at −80C. Total HEK cell RNA was extracted using miRNEasy kits according to the manufacturers’ protocol, with DNase digestion (Qiagen). RNA concentration was measured by Nanodrop (ThermoFisher), and all 260/280 ratios were verified to be > 2.0. Energy regeneration (ER) mix consisted of 100 µM ATP, 100 µM GTP, 4 mM creatine phosphate, and 20 U/mL creatine kinase (Roche).
Reaction mixes consisting of 2.5 mg/ml lysate, ER, fluorescent cargo (200 nM Rango and YFP-M9-CFP, 500 nM GST-GFP-NLS), Hoechst, DPRs, RNA, or inhibitors (100 µM importazole (IPZ, Millipore Sigma); 0.8 mg/mL wheat germ agglutinin (WGA, Millipore Sigma) were assembled on ice during cell permeabilization. DPRs or inhibitors were allowed to equilibrate in cell lysate for at least 30 min prior to initiation of transport. Every plate included: (1) Cargo alone: fluorescent cargo, but no ER or lysate, (2) Untreated controls: fluorescent cargo, ER, and lysate, and (3) Inhibitor: fluorescent cargo, ER, lysate, and IPZ (Rango and GST-GFP-NLS reactions) or WGA (YFP-M9-CFP). Preassembled transport reactions were then transferred onto permeabilized cells via multichannel pipette, and allowed to proceed at room temperature for 2 hr (Rango, YFP-M9-CFP) or 4 hr (GST-GFP-NLS). Cells were fixed in 4% paraformaldehyde/PBS, rinsed 2x with PBS, and transferred to 50% glycerol/PBS for immediate imaging.
For a subset of neuron transport assays, transport was monitored live via time lapse imaging every 5 min for 30 min. In a subset of HeLa assays, transport reactions were centrifuged before use at 14,000g × 15 min to separate soluble and insoluble fractions. In another variation, the transport lysate + DPR and ER mix was allowed to preincubate on the permeabilized HeLa cells for 1 hour prior to initiation of transport, rinsed 1x with TRB, and transport initiated with fresh lysate, cargo, and ER.
Multiple non-overlapping fields per well (4 for time-lapse imaging, 9-16 for fixed imaging), were captured at 40x on an ImageXpress Micro XLS high-content microscope (Molecular Devices, San Jose, CA), and the ratio of nuclear to cytoplasmic fluorescence intensity was calculated using the MetaXpress automated translocation-enhanced module. Raw data were filtered to exclude autofluorescence and the mean N/C ratio from wells without ER or cell lysate was subtracted from all values.

Effect on passive nuclear influx of 40-kD dextran [1] | Displacement of importin β from Rango (GFP nanobody bead co-immunoprecipitation) (importin β) | Effect on Rango import at steady state [3] | Effect on Rango import, time-lapse imaging [3] | Molecule | Effect on passive nuclear influx of GFP [2] | NCT inhibition in permeabilized neurons ([3]; high concentrations)
not observed | little if any effect | no effect | no effect | GPGPGPGPGPGPGPGPGPGPKC [GP10, Synthetic 10-mer GP dipeptide repeat with C-terminal lysine and cysteine] | not observed | –
not observed | little if any effect | only trace inhibition | no effect | GA10: Synthetic 10-mer GA dipeptide repeat with C-terminal lysine and cysteine (GAGAGAGAGAGAGAGAGAGAKC) | not observed | only minimal inhibition at high concentrations
not observed | little if any effect | only trace inhibition | no effect | PA10: Synthetic 10-mer PA dipeptide repeat with C-terminal lysine and cysteine (PAPAPAPAPAPAPAPAPAPAKC) | not observed | –

Molecule | Effect on passive nuclear influx of 40-kD dextran [1] | Displacement of importin β from Rango (GFP nanobody bead co-immunoprecipitation) (importin β) | Effect on Rango import at steady state [3] | Effect on Rango import, time-lapse imaging [3] | Effect on passive nuclear influx of GFP [2] | NCT inhibition in permeabilized neurons ([3]; high concentrations)
N=C(N)NCCC[C@H](NC(=O)[C@@H]1CCCN1C(=O)[C@H](CCCNC(=N)N)NC(=O)[C@@H]1CCCN1C(=O)[C@H](CCCNC(=N)N)NC(=O)[C@@H]1CCCN1C(=O)[C@H](CCCNC(=N)N)NC(=O)[C@@H]1CCCN1C(=O)[C@H](CCCNC(=N)N)NC(=O)[C@@H]1CCCN1C(=O)[C@H](CCCNC(=N)N)NC(=O)[C@@H]1CCCN1C(=O)[C@H](CCCNC(=N)N)NC(=O)[C@@H]1CCCN1C(=O)[C@H](CCCNC(=N)N)NC(=O)[C@@H]1CCCN1C(=O)[C@H](CCCNC(=N)N)NC(=O)[C@@H]1CCCN1C(=O)[C@H](CCCNC(=N)N)NC(=O)[C@@H]1CCCN1)C(=O)O [PR10] (H-PRPRPRPRPRPRPRPRPRPR-OH; N-terminus and C-terminus assumed) | – | dose-dependent displacement of importin β from the sensor | – | dose-dependent inhibition of transport | – | –
